Values of other authors, collected in patent publication US20250258260A1, “MEGLUMINE BASED FORMULATIONS FOR DYNAMIC NUCLEAR POLARIZATION” (THE BOARD OF REGENTS OF THE UNIVERSITY OF TEXAS SYSTEM, priority 2024, published 2025).
Values after ≈ are worked out from the molar mass of the structure shown. Where two headings read alike, the source gives them in different places.

Columns and labels:
[1] = at 11.7 T using water as solvent
muscle function = settings: 18 mM in drinking water for at least 30 days

**Q.** Which T1 [1] does the source give for `O=[13C](O)/C=C/[13C](=O)O` [[1,4-^13C2]fumarate] here?
**A.** 29 s

**Q.** What does the source list for `CNC[C@H](O)[C@@H](O)[C@H](O)[C@H](O)CO` [meglumine]?
**A.** effect of supplementation (muscle function): favorable effect on muscle function; solubility in water: up to 1 g/mL

**Q.** With `O=C(O)/C=C/C(=O)O` [fumaric acid] as the molecule, how does the solubility in water (at 25° C.) read?
**A.** 6000 µg/mL (≈ 51.7 mM)
